Reference: EP0710485A1, “use of anserine in the manufacture of a medicament for stimulating hematopoiesis” (SUNTORY LIMITED, priority 1994, dated 1996)

Legend:
IL-3 = IL-3 productivity of spleen cells of cyclophosphamide-treated mice (FDCP-2 cell MTT assay); assay type: in vivo, ICR mice; conditions: for productivity of IL-3 by spleen cells: CY 300 mg/kg i.v. alone; for IL-3 productivity of the spleen cells: CY 300 mg/kg i.v. + L-anserine 100 mg/kg every day
Protocol: 300 mg/kg dose of cyclophosphamide (CY) was intraveously injected to 7-week old ICR mice. To L-anserine (Ans)-administration group, 100 mg/kg dose of L-anserine was administrated every day from the day on which cyclophosphamide was administrated. On the third, fifth and seventh days from the administration of cyclophosphamide, spleen cells of the mouse were taken and the cells (5 × 10^6 cells/ml) were cultured in a 10% FCS-RPMI 1640 medium supplemented with 2 µg/ml of concanavalin A for 24 hours, and the supernatant was assayed for IL-3. The IL-3 activity was measured by plating 1×10^4 cells/well of IL-3 dependent FDCP-2 cells on a 96 well microtiter plate, adding twofold stepwise-diluted supernatant to the wells, culturing the cells for 24 hours, and measuring a ratio of surviving FDCP-2 cells by MTT assay using 3-(4,5-dimethylthyazol-2yl)-2,5-diphenyl tetrazolium bromide. Using a culture supernatant of WEHI cells as IL-3 standard, a concentration of IL-3 which provides 50% growth per the maximum growth of the cultured FDCP-2 cells was defined as 1 unit, and I L-3 activity of a sample was obtained by calculating a sample dilution ratio which provides 50% of the maximum absorption in the standard curve.

bone marrow cells = experiment: Spontaneous proliferation of bone marrow cells (3H-thymidine uptake) from cyclophosphamide-treated mice; assay type: in vivo, ICR mice
Protocol: 300 mg/kg dose of cyclophosphamide (CY) was intraveously injected into 7-week-old ICR mice. […] The number of cells per femur for each mouse was counted, and the bone marrow cells for each test group were plated on a 96-well microplate (2 X 100,000 cells/well), and at the same time 0.5µ Ci/well of ^3H-thymidine was added. The cells were cultured for 5 hours, and radioactivity (C.P.M) was measured with a liquid scintillation counter. An experiment was carried out using 3 animals per group, and the results are shown by mean value ± standard error. Spontaneous proliferation ability of bone marrow cells for each group was shown in the parentheses by percentage by taking spontaneous proliferation of bone marrow cells at 0 day (untreated) as 100%.

erythrocytes [1] = experiment: Prevention of anemia in mice given cyclophosphamide; assay type: in vivo, C57BL-mice
Protocol: 7-week old C57BL-mice were intravenously injected with cyclophosphamide (CY) in a dose of 300 mg/kg. L-anserine (Ans) was subcutaneously administered every day in a dose of 100 mg/kg from the day on which cyclophosphamide was administered. After 1, 3, 5, 7 and 9 days from the administration of cyclophosphamide (for L-anserine, after 3, 5 and 7 days), blood samples were taken from the orbital venosus plexus of the mouse, and the number of erythrocyte and the amount of hemoglobin were measured by an automatic hemacytometer. The experiment was carried out using three mice per experimental group, and the results are shown as mean ± standard error.

[2] = test system: colony stimulating activity (CSA) in serum; experiment: Colony stimulating activity (CSA) in serum of cyclophosphamide-treated mice
Protocol: 300 mg/kg dose of cyclophosphamide (CY) was intravenously injected into 7-week-old ICR mice. 100 mg/kg dose of L-anserine (Ans) was subcutaneously injected every day from the day on which cyclophosphamide was administered. On the first, third, fifth, seventh and ninth days from the administration of cyclophosphamide (on the third, fifth and seventh day for the group to which Ans was administrated), the mouse serum was taken, and colony stimulating activity (CSA) was measured. For a CSA assay in serum, 50 µl of CSA assay serum was added to a medium comprising 50 µl of bone marrow cells (1.5 × 10^6 cells/ml) aseptically recovered from the femur of a normal female ICR mouse, 200 µl of FCS, 450 µl of 0.6% agar and 300 µl of × 2 DMEM, and the mixture was stirred and cultured in 5% CO2 at 37°C for 10 days, a cell mass comprising at least 30 cells was counted as one colony, and the number of the colonies was defined as the CSA of a serum.

leukocytes = experiment: Leukocyte number recovery in mice given cyclophosphamide; assay type: in vivo, C57BL mice; conditions: for The number of leukocytes: Ans 100 mg/kg s.c. every day where given, mean ± standard error, 5 animals
Description: On the seventh, eighth and ninth days from the administration of cyclophosphamide blood samples were taken from the orbital venosus plexus of the mouse, and the number of leukocytes was counted by an automatic hemacytometer.

mouse bone marrow cells = experiment: Colony Forming Unit in Spleen (CFU-s), transplant method, in X-ray irradiated mice; assay type: in vivo, C57BL/6 mouse; conditions: X-ray 6 Gy, 5 x 10^4 bone marrow cells transplanted, spleen colonies after eight days; L-anserine 100 mg/kg s.c. every day to the seventh day; versus X-ray control group
Protocol: Colony Forming Unit in Spleen (CFU-s) of mouse bone marrow cells in mouse radiated with X-ray was carried out using a transplant method. The X-ray radiation was carried out using an MBR-1520 type R X-ray radiation apparatus manufactured by Hitachi Medico. The mice were irradiated with X-rays such that the radiation dose rate was 1.16 Gy/min (150 kV, 20 mA, Filter: 0.5 mm Al + 0.1 mm Cu), and the radiation dose was 6 Gy. 5 × 10^4 bone marrow cells of normal C57BL/6 mouse were injected into a tail vein of a radiated recipient female C57BL/6 mouse. Eight days later, the spleen of the mouse was removed and fixed with Bouin solution, and the number of cell colonies formed on the spleen surface were counted. To the L-anserine-administration group 100 mg/kg dose of L-anserine was subcutaneously administrated every day from the day on which X-ray was radiated to the seventh day, and to the chicken extract-administration group 0.5 ml/head dose of chicken extract containing 2mg/ml of L-anserine was orally administrated every day from the day on which X-ray was radiated to the seventh day.

erythrocytes [3] = experiment: Treatment of anemia in mice irradiated with X-ray; assay type: in vivo, C57BL/mice; conditions: 4.0 Gy X-ray; L-anserine 100 mg/kg s.c. for 10 days; 14th day from irradiation
Protocol: 7-week old C57BL/mice were systemically irradiated with 4.0 Gy of X-ray. L-anserine was subcutaneously injected continuously for 10 days from the day on which X-ray was irradiated in a dose of 100 mg/kg. On 14th day from the irradiation of X-ray, blood samples were taken from the orbital venosus plexus of mice, and the number of erythrocytes and amount of hemoglobin were measured by an automatic hemacytometer. The experiment used three mice for one experimental group, and the results are shown as mean ± standard error.

[4] = CY 300 mg/kg i.v. alone, third to seventh days
[5] = CY 300 mg/kg i.v. + L-anserine 100 mg/kg s.c. every day, third day to seventh day

Question: For O=P1(N(CCCl)CCCl)NCCCO1 (centres unmarked) [CY, cyclophosphamide], which “productivity of IL-3 by spleen cells” value (IL-3; first to third days) is on record?
Answer: inhibited

Question: And the “productivity of IL-3 by spleen cells” value (IL-3; on and after the fifth day, versus normal conditions)?
Answer: increase of IL-3 productivity by two times

Question: And the “spontaneous proliferation ability of bone marrow cells” value (from here on “spontaneous proliferation ability”) (bone marrow cells; CY 300 mg/kg i.v. alone, fifth day)?
Answer: once recovered to the normal level

Question: And the “spontaneous proliferation ability” value (bone marrow cells; CY 300 mg/kg i.v. alone, first to third days)?
Answer: remarkably inhibited

Question: What about the “spontaneous proliferation ability” value (bone marrow cells; CY 300 mg/kg i.v. alone, seventh to ninth days) of the same molecule?
Answer: again decreased

Question: And the amount of hemoglobin (erythrocytes [1]; [4])?
Answer: decrease, resulting in anemia

Question: What about the number of erythrocytes (erythrocytes [1]; [4]) of the same molecule?
Answer: decrease, resulting in anemia

Question: What about the “colony stimulating activity (CSA) in serum” value ([2]; CY 300 mg/kg i.v. alone, after the third day) of the same molecule?
Answer: the inhibition was compensated by stimulation of CSA

Question: And the “colony stimulating activity (CSA) in serum” value ([2]; CY 300 mg/kg i.v. alone, first day)?
Answer: inhibited

Question: What about the “The number of leukocytes” value (leukocytes; 7 days after CY 300 mg/kg i.v.) of the same molecule?
Answer: 32.8 ± 8.0 X 100/µl

Question: And the “The number of leukocytes” value (leukocytes; 8 days after CY 300 mg/kg i.v.)?
Answer: 67.4 ± 8.1 X 100/µl

Question: What about the “The number of leukocytes” value (leukocytes; 9 days after CY 300 mg/kg i.v.) of the same molecule?
Answer: 66.6 ± 7.2 X 100/µl

Question: And the number of leukocytes (leukocytes; CY 300 mg/kg i.v. alone, time course after administration)?
Answer: decreased immediately after the administration, and gradually recovered before the seventh to ninth day

Question: What does the source list for Cn1cncc1C[C@H](NC(=O)CCN)C(=O)O [L-anserine, β-alanyl-π-methyl-L-histidine]?
Answer: IL-3 productivity of the spleen cells (IL-3; fifth and seventh days): 1.5 times higher than the control group; IL-3 productivity of the spleen cells (IL-3; third to seventh days, versus CY alone control group): higher than the control group; CFU-s activity (mouse bone marrow cells): significantly higher; spontaneous proliferation ability of bone marrow cells (bone marrow cells; CY 300 mg/kg i.v. + L-anserine 100 mg/kg s.c. every day, third and seventh days, versus CY alone control group): at least two times higher than the control group; spontaneous proliferation ability of bone marrow cells (bone marrow cells; CY 300 mg/kg i.v. + L-anserine 100 mg/kg s.c. every day, third to seventh days, versus CY alone control group): significantly higher than that of the control group; decrease of content of hemoglobin (erythrocytes [1]; [5]): inhibited; decrease of the number of erythrocytes (erythrocytes [1]; [5]): inhibited; colony stimulating activity (CSA) in serum ([2]; CY 300 mg/kg i.v. + L-anserine 100 mg/kg s.c. every day, third day): 1.5 times higher than the control group; colony stimulating activity (CSA) in serum ([2]; CY 300 mg/kg i.v. + L-anserine 100 mg/kg s.c. every day, third to seventh days, versus CY alone control): higher than that of the control; recovery of the concentration of hemoglobin (erythrocytes [3]): promoted; recovery of the number of erythrocytes (erythrocytes [3]): promoted; number of leukocytes (leukocytes; CY 300 mg/kg i.v. + L-anserine 100 mg/kg s.c. every day, eighth and ninth days): ~1.5 times higher than that of the control; number of leukocytes (leukocytes; CY 300 mg/kg i.v. + L-anserine 100 mg/kg s.c. every day, seventh to ninth days, versus CY alone control group): higher than that of the control group
